Data from patent US20250304535A1, “KAT6 Inhibitors” (BeiGene Switzerland GmbH, priority 2024, published 2025).
pIC50: −log10 of the molar value.

Assays:
[1] = molecular target: Recombinant human KAT6B protein (657-1069) (Homo sapiens (Human), UniProt Q8WYB5); experiment: KAT6B biochemical TR-FRET assay; settings: histone H4 peptide 1000 nM, AcCoA 100 nM, enzyme 5 nM
[2] = molecular target: Recombinant human KAT6A protein (497-780) (Homo sapiens (Human), UniProt Q92794); experiment: KAT6A biochemical TR-FRET assay; settings: histone H4 peptide 2000 nM, AcCoA 300 nM, enzyme 5 nM
Chain of Recombinant human KAT6A protein (497-780) (Q92794 497-780): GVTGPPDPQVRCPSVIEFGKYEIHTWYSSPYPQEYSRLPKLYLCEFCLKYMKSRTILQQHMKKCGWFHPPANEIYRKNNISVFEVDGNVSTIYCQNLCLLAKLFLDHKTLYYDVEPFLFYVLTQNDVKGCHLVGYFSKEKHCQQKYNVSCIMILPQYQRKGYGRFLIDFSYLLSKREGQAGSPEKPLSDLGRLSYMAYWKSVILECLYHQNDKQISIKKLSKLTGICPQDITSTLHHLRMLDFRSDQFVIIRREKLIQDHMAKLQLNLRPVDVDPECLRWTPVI

[3] = tested on: histone H3K23 acetylation in U-2 OS cells; experiment: Histone H3 lysine 23 acetylation assay in U-2 OS cells (high content analysis); format: cell-based; settings: 24 hrs exposure, H3K23ac level
In short: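 U-2 OS cells seeded overnight, then exposed 24 h to a 9-point compound dilution series; 0.1% DMSO medium as blank. Fixed, permeabilised, stained with anti-H3K23ac plus Alexa Fluor 647 secondary and DAPI; nuclear H3K23ac intensity read by high-content imaging. Inhibition = mean per-well cell intensity relative to on-plate blanks.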

Chain of Recombinant human KAT6B protein (657-1069) (Q8WYB5 657-1069): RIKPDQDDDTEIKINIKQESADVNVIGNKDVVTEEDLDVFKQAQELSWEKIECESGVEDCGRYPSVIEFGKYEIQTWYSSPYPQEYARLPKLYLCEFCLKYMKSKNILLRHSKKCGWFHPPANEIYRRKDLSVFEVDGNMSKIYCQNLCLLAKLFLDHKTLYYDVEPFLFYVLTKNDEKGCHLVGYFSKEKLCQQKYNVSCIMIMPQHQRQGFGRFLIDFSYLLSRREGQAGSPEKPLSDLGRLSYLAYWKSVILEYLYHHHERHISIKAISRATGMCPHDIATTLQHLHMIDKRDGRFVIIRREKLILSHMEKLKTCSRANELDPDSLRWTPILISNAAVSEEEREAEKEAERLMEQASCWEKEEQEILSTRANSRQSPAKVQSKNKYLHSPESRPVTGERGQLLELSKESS

| SMILES | pIC50 [1] | pIC50 [2] | IC50 ([3]; Homo sapiens, U2OS) [nM] | IC50 [3] [nM] |
| --- | --- | --- | --- | --- |
| COc1ccc(C23COC(C2)C3)cc1S(=O)(=O)NC(=O)c1ccc(Cn2cccn2)c(OC)n1 [Example C77, 5-((1H-pyrazol-1-yl)methyl)-N-((5-(2-oxabicyclo[2.1.1]hexan-4-yl)-2-methoxyphenyl)sulfonyl)-6-methoxypicolinamide] | ≥ 8.30 | 7.30 to 8.30 | ≤ 10 |  |
| COc1ccc(C23CC(C2)C3)nc1S(=O)(=O)NC(=O)c1ccc(Cn2cccn2)c(OC)n1 [Example C79, 5-((1H-pyrazol-1-yl)methyl)-N-((6-(bicyclo[1.1.1]pentan-1-yl)-3-methoxypyridin-2-yl)sulfonyl)-6-methoxypicolinamide] | ≥ 8.30 | ≥ 8.30 | ≤ 10 |  |

Results, then the compound that gave them:

| pIC50 [1] | pIC50 [2] | IC50 ([3]; Homo sapiens, U2OS) [nM] | IC50 [3] [nM] | SMILES |
| --- | --- | --- | --- | --- |
| ≥ 8.30 | ≥ 8.30 | ≤ 10 |  | COc1ccc(C2(C)CC3(COC3)C2)cc1S(=O)(=O)NC(=O)c1ccc(Cn2cccn2)c(OC)n1 [Example C74, 5-((1H-pyrazol-1-yl)methyl)-6-methoxy-N-((2-methoxy-5-(6-methyl-2-oxaspiro[3.3]heptan-6-yl)phenyl)sulfonyl) picolinamide] |
| ≥ 8.30 | ≥ 8.30 | ≤ 10 |  | COc1ccc(C2(C)COC2)cc1S(=O)(=O)NC(=O)c1ccc(Cn2cccn2)c(OC)n1 [Example C75, 5-((1H-pyrazol-1-yl)methyl)-6-methoxy-N-((2-methoxy-5-(3-methyloxetan-3-yl)phenyl)sulfonyl) picolinamide] |
| ≥ 8.30 | ≥ 8.30 | ≤ 10 |  | COc1ccc(C2(C)CCC2)cc1S(=O)(=O)NC(=O)c1ccc(Cn2cccn2)c(OC)n1 [Example C76, 5-((1H-pyrazol-1-yl)methyl)-6-methoxy-N-((2-methoxy-5-(1-methylcyclobutyl)phenyl)sulfonyl) picolinamide] |
| ≥ 8.30 | ≥ 8.30 |  | ≤ 10 | COc1ccc2c(c1S(=O)(=O)NC(=O)c1ccc(Cn3cccn3)c(OC)n1)OC1CC2C1 [Example C78, 5-((1H-pyrazol-1-yl)methyl)-6-methoxy-N-((7-methoxy-3,4-dihydro-2H-2,4-methanochroman-8-yl)sulfonyl)picolinamide] |
